In US20060069132A1, “Azolecarboxamide herbicides” (priority 2004, published 2006):

Tests used:
rice = assay: Test B pre-/postemergence herbicide test; type: in vivo, Oryza sativa; settings: preemergence; for Rice plant response rating (0 to 100 scale) / Plant response rating, Rice: 0 = no effect, 100 = complete control; for Plant response rating, Rice: 500 g ai/ha, visual rating
How it was run: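 Plants compared with untreated controls 13–15 days post-treatment and given a visual 0–100 injury score. Applications: preemergence to seeds; postemergence at 1- to 4-leaf (2–18 cm); paddy species flooded, 2-leaf stage. Vehicle non-phytotoxic, surfactant included.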

bermudagrass = assay: Test C pre-/postemergence herbicide test; type: in vivo, Cynodon dactylon; settings: for Bermudagrass plant response rating: 500 g ai/ha
How it was run: (§1)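 Pre/post spray; non-phytotoxic solvent + surfactant. Post-timing 1–4 leaves, 2–18 cm. Read-out: visual % control vs untreated, day 12–14, greenhouse.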

cocklebur = assay: Test C pre-/postemergence herbicide test; type: in vivo, Xanthium strumarium; settings: for Cocklebur plant response rating: Preemergence, 500 g ai/ha
How it was run: as §1

giant foxtail = assay: Test C pre-/postemergence herbicide test; type: in vivo, Setaria faberi
How it was run: as §1

morningglory = assay: Test C pre-/postemergence herbicide test; type: in vivo, Ipomoea coccinea; set-up: key to Plant response rating, Morningglory: 0 = no effect, 100 = complete control
How it was run: as §1

yellow nutsedge = assay: Test C pre-/postemergence herbicide test; type: in vivo, Cyperus esculentus
How it was run: as §1

pigweed = assay: Test C pre-/postemergence herbicide test; type: in vivo, Amaranthus retroflexus
How it was run: as §1

soybean = assay: Test C pre-/postemergence herbicide test; type: in vivo, Glycine max
How it was run: as §1

[1] = tested on: common (oilseed) sunflower; assay: Test C pre-/postemergence herbicide test; type: in vivo, Helianthus annuus; settings: preemergence
How it was run: as §1

velvetleaf = assay: Test C pre-/postemergence herbicide test; type: in vivo, Abutilon theophrasti
How it was run: as §1

[2] = tested on: smallflower umbrella sedge; assay: Test C flooded paddy test; type: in vivo, Cyperus difformis; settings: for Plant response rating, Sedge, Umbrella: 500 g ai/ha, visual rating after 12 to 14 days
barnyardgrass = assay: Test C flooded paddy test; type: in vivo, Echinochloa crus-galli; settings: for Plant response rating, Barnyardgrass: 500 g ai/ha, visual rating after 12 to 14 days
How it was run: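 Scoring by eye, 12–14 days post-treatment, greenhouse-held plants vs. controls; 0 no effect, 100 complete control. Sprayed at 1–4 leaves (2–18 cm); paddy barnyardgrass at 2 leaves, flooded.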

[3] = 62 g ai/ha, preemergence, scale 0 to 100, 0 no effect, 100 complete control
[4] = 125 g ai/ha, scale 0 (no effect) to 100 (complete control), visual, 12 to 14 days, preemergence
[5] = 250 g ai/ha, scale 0-100, preemergence
[6] = Preemergence, scale 0 to 100, 0 no effect, 100 complete control
[7] = 62 g ai/ha, preemergence, scale 0 to 100
[8] = scale 0 to 100, 0 no effect, 100 complete control
[9] = 500 g ai/ha, scale 0 to 100 (0 no effect, 100 complete control), visual, 12 to 14 days, preemergence
[10] = 500 g ai/ha, scale 0 to 100 (0 no effect, 100 complete control), visual, 12 to 14 days
[11] = 62 g ai/ha, scale 0 to 100 (0 no effect, 100 complete control)
[12] = 125 g ai/ha, scale 0 to 100 (0 no effect, 100 complete control)
[13] = 250 g ai/ha, scale of 0 to 100, 0 is no effect, 100 is complete control
[14] = scale 0 to 100 (0 no effect, 100 complete control)
[15] = Postemergence, 250 g ai/ha, scale 0 to 100, 0 no effect, 100 complete control
[16] = postemergence, 125 g ai/ha, scale 0 to 100
[17] = postemergence, 62 g ai/ha, scale 0 to 100
[18] = Postemergence, 500 g ai/ha, scale 0 to 100

CCn1nc(C(C)(C)C)cc1C(=O)Nc1cc(C(=O)N2CCCC2)ccc1F [Compound 242]
100: Plant response rating, Bermudagrass (bermudagrass; [4]) | Plant response rating, Bermudagrass (bermudagrass; [5]) | Bermudagrass plant response rating (bermudagrass; [6]) | Plant response rating, Foxtail, Giant (giant foxtail; [4]) | Plant response rating, Foxtail, Giant (giant foxtail; [5]) | Plant response rating, Foxtail, Giant (giant foxtail; [9]) | Plant response rating, Pigweed (pigweed; [7]) | Plant response rating, Pigweed (pigweed; [4]) | Plant response rating, Pigweed (pigweed; [5]) | Plant response rating, Pigweed (pigweed; [9]) | Plant response rating, Velvetleaf (velvetleaf; [7]) | Plant response rating, Velvetleaf (velvetleaf; [5]) | Plant response rating, Velvetleaf (velvetleaf; [9])
80: Plant response rating, Rice (rice)
85: Plant response rating, Foxtail, Giant (giant foxtail; [7]) | Sedge, Umbrella plant response rating [2, 13] | Plant response rating, Sedge, Umbrella [2, 14]
90: Barnyardgrass plant response rating (barnyardgrass; [13])
25: Plant response rating, Nutsedge, Yellow (yellow nutsedge; [9])
0: Plant response rating, Cocklebur (cocklebur; [7]) | Plant response rating, Cocklebur (cocklebur; [4]) | Plant response rating, Morningglory (morningglory; [7]) | Plant response rating, Morningglory (morningglory; [4]) | Plant response rating, Morningglory (morningglory; [5]) | Plant response rating, Nutsedge, Yellow (yellow nutsedge; [7]) | Plant response rating, Nutsedge, Yellow (yellow nutsedge; [4]) | Plant response rating, Soybean (soybean; [7]) | Plant response rating, Sunflower ([1]; 62 g ai/ha, scale 0 to 100)
15: Plant response rating, Morningglory (morningglory; [9]) | Plant response rating, Nutsedge, Yellow (yellow nutsedge; [5]) | Barnyardgrass plant response rating (barnyardgrass; [11])
50: Rice plant response rating (0 to 100 scale) (rice; 125 g ai/ha) | Cocklebur plant response rating (cocklebur; [8]) | Plant response rating, Sunflower ([1]; 250 g ai/ha, scale 0-100)
75: Plant response rating, Soybean (soybean; [9]) | Sedge, Umbrella plant response rating [2, 12] | Barnyardgrass plant response rating (barnyardgrass; [12])
45: Sedge, Umbrella plant response rating [2, 11]
65: Plant response rating, Soybean (soybean; [5])
95: Plant response rating, Bermudagrass (bermudagrass; [3]) | Plant response rating, Sunflower [1, 10] | Plant response rating, Barnyardgrass (barnyardgrass; [14])
35: Plant response rating, Cocklebur (cocklebur; [5])

CCn1nc(C2(C)CC2)cc1C(=O)Nc1cccc(C(=O)N2CC=CC2)c1 [Compound 304]
10: Plant response rating, Morningglory (morningglory; [4]) | Plant response rating, Morningglory (morningglory; [5]) | Plant response rating, Morningglory (morningglory; [9])
50: Plant response rating, Foxtail, Giant (giant foxtail; [4]) | Barnyardgrass plant response rating (barnyardgrass; [12])
60: Plant response rating, Foxtail, Giant (giant foxtail; [5]) | Plant response rating, Velvetleaf (velvetleaf; [9])
20: Plant response rating, Rice (rice) | Plant response rating, Soybean (soybean; [5]) | Plant response rating, Soybean (soybean; [9])
90: Plant response rating, Foxtail, Giant (giant foxtail; [9]) | Sedge, Umbrella plant response rating [2, 12]
95: Sedge, Umbrella plant response rating [2, 13] | Plant response rating, Sedge, Umbrella [2, 14] | Plant response rating, Barnyardgrass (barnyardgrass; [14])
70: Plant response rating, Bermudagrass (bermudagrass; [4])
0: Rice plant response rating (0 to 100 scale) (rice; 125 g ai/ha) | Plant response rating, Cocklebur (cocklebur; [7]) | Plant response rating, Cocklebur (cocklebur; [4]) | Plant response rating, Cocklebur (cocklebur; [5]) | Cocklebur plant response rating (cocklebur; [8]) | Plant response rating, Morningglory (morningglory; [7]) | Plant response rating, Nutsedge, Yellow (yellow nutsedge; [7]) | Plant response rating, Nutsedge, Yellow (yellow nutsedge; [4]) | Plant response rating, Nutsedge, Yellow (yellow nutsedge; [5]) | Plant response rating, Soybean (soybean; [7]) | Plant response rating, Sunflower ([1]; 62 g ai/ha, scale 0 to 100) | Plant response rating, Sunflower ([1]; 250 g ai/ha, scale 0-100) | Plant response rating, Velvetleaf (velvetleaf; [7])
75: Sedge, Umbrella plant response rating ([2]; 62 g ai/ha, scale 0 to 100)
40: Barnyardgrass plant response rating (barnyardgrass; [11])
100: Plant response rating, Bermudagrass (bermudagrass; [5]) | Bermudagrass plant response rating (bermudagrass; [6]) | Plant response rating, Pigweed (pigweed; [7]) | Plant response rating, Pigweed (pigweed; [4]) | Plant response rating, Pigweed (pigweed; [5]) | Plant response rating, Pigweed (pigweed; [9])
5: Plant response rating, Bermudagrass (bermudagrass; [3]) | Plant response rating, Foxtail, Giant (giant foxtail; [7]) | Plant response rating, Nutsedge, Yellow (yellow nutsedge; [9]) | Plant response rating, Sunflower [1, 10]
85: Barnyardgrass plant response rating (barnyardgrass; [13])

CCn1nc(C(C)(C)C)cc1C(=O)Nc1cccc(OC(F)(F)C(F)F)c1 [Compound 333]
40: Plant response rating, Bermudagrass (bermudagrass; [3]) | Plant response rating, Soybean (soybean; [15])
45: Soybean plant response rating (soybean; [18])
20: Plant response rating, Barnyardgrass (barnyardgrass; [14])
100: Plant response rating, Bermudagrass (bermudagrass; [5]) | Bermudagrass plant response rating (bermudagrass; [6]) | Plant response rating, Pigweed (pigweed; [7]) | Plant response rating, Pigweed (pigweed; [4]) | Plant response rating, Pigweed (pigweed; [5]) | Plant response rating, Pigweed (pigweed; [9]) | Pigweed plant response rating (pigweed; [18]) | Plant response rating, Pigweed (pigweed; [15]) | Plant response rating, Pigweed (pigweed; [16])
55: Plant response rating, Velvetleaf (velvetleaf; [9])
5: Bermudagrass plant response rating (bermudagrass; Postemergence, scale 0 to 100) | Plant response rating, Bermudagrass (bermudagrass; [15]) | Cocklebur plant response rating (cocklebur; [8]) | Plant response rating, Cocklebur (cocklebur; [16]) | Plant response rating, Foxtail, Giant (giant foxtail; [16]) | Plant response rating, Foxtail, Giant (giant foxtail; [17])
30: Plant response rating, Soybean (soybean; [16]) | Plant response rating, Soybean (soybean; [17]) | Sedge, Umbrella plant response rating [2, 13]
50: Plant response rating, Foxtail, Giant (giant foxtail; [5]) | Plant response rating, Velvetleaf (velvetleaf; [5]) | Plant response rating, Velvetleaf (velvetleaf; [15]) | Plant response rating, Velvetleaf (velvetleaf; [16])
75: Plant response rating, Foxtail, Giant (giant foxtail; [9])
85: Plant response rating, Bermudagrass (bermudagrass; [4])
0: Plant response rating (0 to 100 scale), Rice (rice; 125 g ai/ha, 0 is no effect, 100 is complete control) | Plant response rating, Rice (rice) | Plant response rating, Bermudagrass (bermudagrass; [16]) | Plant response rating, Bermudagrass (bermudagrass; [17]) | Plant response rating, Cocklebur (cocklebur; [7]) | Plant response rating, Cocklebur (cocklebur; [4]) | Plant response rating, Cocklebur (cocklebur; [5]) | Plant response rating, Cocklebur (cocklebur; [17]) | Plant response rating, Foxtail, Giant (giant foxtail; [7]) | Plant response rating, Morningglory (morningglory; [7]) | Plant response rating, Morningglory (morningglory; [4]) | Plant response rating, Morningglory (morningglory; [5]) | Plant response rating, Morningglory (morningglory; [16]) | Plant response rating, Morningglory (morningglory; [17]) | Plant response rating, Nutsedge, Yellow (yellow nutsedge; [7]) | Plant response rating, Nutsedge, Yellow (yellow nutsedge; [4]) | Plant response rating, Nutsedge, Yellow (yellow nutsedge; [5]) | Plant response rating, Nutsedge, Yellow (yellow nutsedge; [9]) | Nutsedge, Yellow plant response rating (yellow nutsedge; [18]) | Plant response rating, Nutsedge, Yellow (yellow nutsedge; [15]) | Plant response rating, Nutsedge, Yellow (yellow nutsedge; [16]) | Plant response rating, Nutsedge, Yellow (yellow nutsedge; [17]) | Plant response rating, Soybean (soybean; [7]) | Plant response rating, Soybean (soybean; [5]) | Plant response rating, Soybean (soybean; [9]) | Plant response rating, Sunflower ([1]; 62 g ai/ha, scale 0 to 100) | Plant response rating, Sunflower ([1]; 250 g ai/ha, scale 0-100) | Plant response rating, Sunflower [1, 10] | Plant response rating, Velvetleaf (velvetleaf; [7]) | Sedge, Umbrella plant response rating ([2]; 62 g ai/ha, scale 0 to 100) | Barnyardgrass plant response rating (barnyardgrass; [11]) | Barnyardgrass plant response rating (barnyardgrass; [12])
15: Sedge, Umbrella plant response rating [2, 12]
65: Plant response rating, Pigweed (pigweed; [17])
10: Plant response rating, Foxtail, Giant (giant foxtail; [4]) | Foxtail, Giant plant response rating (giant foxtail; [18]) | Plant response rating, Foxtail, Giant (giant foxtail; [15]) | Plant response rating, Morningglory (morningglory; [9]) | Morningglory plant response rating (morningglory; [18]) | Plant response rating, Morningglory (morningglory; [15]) | Barnyardgrass plant response rating (barnyardgrass; [13])
80: Plant response rating, Cocklebur (cocklebur; [15]) | Velvetleaf plant response rating (velvetleaf; [18]) | Plant response rating, Sedge, Umbrella [2, 14]
